Results on seven compounds are retold here after ChEMBL document CHEMBL1135773, “Purine and pyrimidine (P2) receptors as drug targets” (J Med Chem, 2002).

In assay [1] the target is T1, P2X purinoceptor 1 (Rattus norvegicus, UniProt P47824).
T1 sequence (P47824 whole entry): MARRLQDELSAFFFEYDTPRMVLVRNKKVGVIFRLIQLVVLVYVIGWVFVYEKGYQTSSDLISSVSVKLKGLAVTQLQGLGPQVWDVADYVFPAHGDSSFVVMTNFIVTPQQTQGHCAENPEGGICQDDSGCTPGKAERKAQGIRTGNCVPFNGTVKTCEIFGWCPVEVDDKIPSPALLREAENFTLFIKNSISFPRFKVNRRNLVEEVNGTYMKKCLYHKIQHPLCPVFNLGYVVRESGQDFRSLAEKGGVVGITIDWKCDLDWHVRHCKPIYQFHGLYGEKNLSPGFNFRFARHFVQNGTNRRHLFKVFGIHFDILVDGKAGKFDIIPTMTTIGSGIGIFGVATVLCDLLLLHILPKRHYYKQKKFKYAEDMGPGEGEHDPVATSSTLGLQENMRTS
As to the kind of experiment: The compound was evaluated for antagonist activity against P2X purinoceptor 1 (P2X1) like receptor from rat vas deferens. The class given is functional.

In assay [2] the target is T2, P2X purinoceptor 4 (Rattus norvegicus, UniProt P51577).
T2 sequence (P51577 whole entry): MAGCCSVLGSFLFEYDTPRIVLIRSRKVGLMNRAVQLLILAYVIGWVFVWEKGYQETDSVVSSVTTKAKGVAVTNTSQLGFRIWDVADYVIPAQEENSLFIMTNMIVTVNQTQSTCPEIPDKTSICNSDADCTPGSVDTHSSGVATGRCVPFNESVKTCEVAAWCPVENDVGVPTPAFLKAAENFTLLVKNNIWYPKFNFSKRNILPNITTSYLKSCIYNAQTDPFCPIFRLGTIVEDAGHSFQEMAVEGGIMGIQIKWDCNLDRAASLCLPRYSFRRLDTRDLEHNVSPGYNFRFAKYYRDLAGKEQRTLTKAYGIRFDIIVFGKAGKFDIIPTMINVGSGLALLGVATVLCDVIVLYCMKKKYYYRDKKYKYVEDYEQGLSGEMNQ
As to the kind of experiment: Antagonist activity against recombinant rat P2X purinoceptor 4 (P2X4) at 30 uM, expressed in Xenopus oocytes. The class given is functional, cell-based, Oocyte.

For the next assay, the target named is T3, P2X purinoceptor 5 (Rattus norvegicus, UniProt P51578).
T3 sequence (P51578 whole entry): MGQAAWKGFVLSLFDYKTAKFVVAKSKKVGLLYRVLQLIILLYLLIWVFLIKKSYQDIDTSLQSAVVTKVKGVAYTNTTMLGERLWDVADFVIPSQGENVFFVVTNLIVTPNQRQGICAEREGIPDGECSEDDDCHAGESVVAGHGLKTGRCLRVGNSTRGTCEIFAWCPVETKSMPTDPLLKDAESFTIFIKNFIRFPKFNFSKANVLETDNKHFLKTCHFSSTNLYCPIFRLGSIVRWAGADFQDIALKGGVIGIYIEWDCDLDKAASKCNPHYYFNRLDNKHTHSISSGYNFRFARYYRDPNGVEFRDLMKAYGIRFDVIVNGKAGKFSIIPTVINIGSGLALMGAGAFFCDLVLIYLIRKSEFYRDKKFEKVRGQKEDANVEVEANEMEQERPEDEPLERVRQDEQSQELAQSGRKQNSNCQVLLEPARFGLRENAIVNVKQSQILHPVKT
Nature of the assay: Antagonist activity against recombinant rat P2X purinoceptor 5 (P2X5). The class given is functional.

For a further assay, the target named is P2X purinoceptor 6 (Rattus norvegicus, UniProt P51579). As to the kind of experiment: Antagonist activity against recombinant rat P2X purinoceptor 6 (P2X6 ). The class given is functional.
P2X purinoceptor 6, sequence (P51579 whole entry): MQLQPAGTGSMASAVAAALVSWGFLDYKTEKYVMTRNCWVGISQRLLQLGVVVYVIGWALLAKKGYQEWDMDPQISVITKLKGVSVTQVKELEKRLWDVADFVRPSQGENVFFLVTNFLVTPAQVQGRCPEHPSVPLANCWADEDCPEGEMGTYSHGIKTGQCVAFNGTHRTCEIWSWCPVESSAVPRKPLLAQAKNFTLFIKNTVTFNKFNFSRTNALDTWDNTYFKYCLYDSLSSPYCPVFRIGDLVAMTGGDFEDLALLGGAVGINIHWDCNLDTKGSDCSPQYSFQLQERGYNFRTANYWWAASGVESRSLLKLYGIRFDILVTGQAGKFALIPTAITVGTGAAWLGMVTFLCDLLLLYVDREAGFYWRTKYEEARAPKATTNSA
A further assay concerns the target T4, P2X purinoceptor 2 (Rattus norvegicus, UniProt P49653).
T4 sequence (P49653 whole entry): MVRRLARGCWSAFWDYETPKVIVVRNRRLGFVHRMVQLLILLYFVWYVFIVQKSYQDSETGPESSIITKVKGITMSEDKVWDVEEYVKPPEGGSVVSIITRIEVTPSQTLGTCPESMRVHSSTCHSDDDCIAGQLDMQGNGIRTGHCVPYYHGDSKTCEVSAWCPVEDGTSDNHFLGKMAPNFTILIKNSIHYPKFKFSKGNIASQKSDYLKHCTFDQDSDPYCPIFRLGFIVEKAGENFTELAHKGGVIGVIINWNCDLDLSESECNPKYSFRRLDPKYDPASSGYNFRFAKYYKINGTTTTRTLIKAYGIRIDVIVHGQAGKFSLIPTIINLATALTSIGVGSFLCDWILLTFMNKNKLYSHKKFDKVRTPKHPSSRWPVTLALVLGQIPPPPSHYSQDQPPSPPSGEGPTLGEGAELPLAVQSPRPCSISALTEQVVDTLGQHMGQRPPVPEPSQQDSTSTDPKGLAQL
Nature of the assay: Antagonist activity against recombinant rat receptor P2X purinoceptor 2 (P2X2) at 10 uM, expressed in Xenopus oocytes. It counts as functional, cell-based, Oocyte.

Another assay concerns the target P2Y purinoceptor 2 (Homo sapiens, UniProt P41231). As to the kind of experiment: Evaluated for agonist activity against phospholipase C coupled recombinant human P2Y purinoceptor 2 (P2Y2). It counts as functional.
The target in a further assay is T5, P2X purinoceptor 3 (Homo sapiens, UniProt P56373).
T5 sequence (P56373 whole entry): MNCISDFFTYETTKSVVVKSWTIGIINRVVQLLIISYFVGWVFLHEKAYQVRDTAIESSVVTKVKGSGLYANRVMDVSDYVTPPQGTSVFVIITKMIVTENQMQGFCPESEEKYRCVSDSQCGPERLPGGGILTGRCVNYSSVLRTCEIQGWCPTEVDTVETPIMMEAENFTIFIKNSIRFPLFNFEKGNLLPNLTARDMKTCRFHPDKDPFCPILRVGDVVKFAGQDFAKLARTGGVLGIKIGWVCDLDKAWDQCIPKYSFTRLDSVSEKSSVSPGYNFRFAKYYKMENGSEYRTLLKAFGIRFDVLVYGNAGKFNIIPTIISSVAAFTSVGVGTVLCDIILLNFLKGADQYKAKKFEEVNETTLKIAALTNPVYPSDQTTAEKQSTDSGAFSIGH
As to the kind of experiment: Antagonist activity against recombinant human P2X purinoceptor 3 (P2X3 ). The class given is functional.

The target in the next assay is T6, P2Y purinoceptor 11 (Homo sapiens, UniProt Q96G91).
T6 sequence (Q96G91 whole entry): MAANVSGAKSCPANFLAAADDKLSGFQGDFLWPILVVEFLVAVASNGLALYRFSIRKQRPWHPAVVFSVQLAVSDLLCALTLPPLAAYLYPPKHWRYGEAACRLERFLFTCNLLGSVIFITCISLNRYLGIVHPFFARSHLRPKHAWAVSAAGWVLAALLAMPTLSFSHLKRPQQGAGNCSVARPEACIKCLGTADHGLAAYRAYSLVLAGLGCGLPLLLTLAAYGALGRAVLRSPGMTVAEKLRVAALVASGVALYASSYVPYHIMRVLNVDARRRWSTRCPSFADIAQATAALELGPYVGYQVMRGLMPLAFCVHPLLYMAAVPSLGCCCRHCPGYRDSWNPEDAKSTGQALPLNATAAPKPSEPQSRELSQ
As to the kind of experiment: Agonist activity against phospholipase C coupled human P2Y purinoceptor 11 (P2Y11). The class given is functional.

For a further assay, the target named is P2Y purinoceptor 12 (Rattus norvegicus, UniProt Q9EPX4). As to the kind of experiment: Antagonist activity against phospholipase C coupled rat P2Y purinoceptor 12 (P2Y12). The class given is functional.
P2Y purinoceptor 12, sequence (Q9EPX4 whole entry): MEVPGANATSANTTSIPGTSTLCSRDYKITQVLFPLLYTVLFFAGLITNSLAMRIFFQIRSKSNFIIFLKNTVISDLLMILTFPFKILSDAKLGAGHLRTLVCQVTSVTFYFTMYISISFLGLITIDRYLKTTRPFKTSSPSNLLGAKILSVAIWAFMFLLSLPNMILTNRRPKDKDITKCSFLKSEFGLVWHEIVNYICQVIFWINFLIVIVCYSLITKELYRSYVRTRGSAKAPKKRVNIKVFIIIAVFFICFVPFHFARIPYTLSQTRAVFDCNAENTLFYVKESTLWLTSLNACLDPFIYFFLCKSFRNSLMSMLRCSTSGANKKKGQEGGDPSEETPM
The target of another assay is P2Y purinoceptor 1 (Meleagris gallopavo, UniProt P49652). Nature of the assay: Evaluated for agonist activity against phospholipase C coupled P2Y purinoceptor 1 (P2Y1) of turkey erythrocytes. The class given is functional.
P2Y purinoceptor 1, sequence (P49652 whole entry): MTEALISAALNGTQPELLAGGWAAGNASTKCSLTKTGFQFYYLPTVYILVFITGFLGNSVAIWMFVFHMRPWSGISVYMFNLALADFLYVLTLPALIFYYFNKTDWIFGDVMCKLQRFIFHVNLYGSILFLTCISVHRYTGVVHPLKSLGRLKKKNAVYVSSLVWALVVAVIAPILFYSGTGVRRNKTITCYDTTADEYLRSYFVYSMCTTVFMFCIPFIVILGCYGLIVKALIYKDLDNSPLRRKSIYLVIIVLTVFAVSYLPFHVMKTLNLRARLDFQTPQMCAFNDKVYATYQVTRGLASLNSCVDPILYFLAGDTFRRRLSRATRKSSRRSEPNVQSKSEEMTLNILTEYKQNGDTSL
The target in assay [3] is T7, P2X purinoceptor 1 (Homo sapiens, UniProt P51575).
T7 sequence (P51575 whole entry): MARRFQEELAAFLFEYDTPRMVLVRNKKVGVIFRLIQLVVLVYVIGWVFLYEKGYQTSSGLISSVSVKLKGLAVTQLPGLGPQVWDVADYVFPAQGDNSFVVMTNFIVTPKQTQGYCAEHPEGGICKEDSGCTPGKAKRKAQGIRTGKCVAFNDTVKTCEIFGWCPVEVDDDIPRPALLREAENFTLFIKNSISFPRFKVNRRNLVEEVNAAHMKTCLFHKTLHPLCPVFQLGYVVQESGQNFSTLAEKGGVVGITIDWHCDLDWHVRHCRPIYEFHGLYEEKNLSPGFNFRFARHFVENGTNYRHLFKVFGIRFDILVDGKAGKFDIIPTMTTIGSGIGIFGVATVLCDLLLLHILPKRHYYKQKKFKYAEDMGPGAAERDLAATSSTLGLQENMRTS
Nature of the assay: Antagonist activity against recombinant human P2X purinoceptor 1 (P2X1 ). It counts as functional.

The target in assay [4] is T8, P2X purinoceptor 4 (Homo sapiens, UniProt Q99571).
T8 sequence (Q99571 whole entry): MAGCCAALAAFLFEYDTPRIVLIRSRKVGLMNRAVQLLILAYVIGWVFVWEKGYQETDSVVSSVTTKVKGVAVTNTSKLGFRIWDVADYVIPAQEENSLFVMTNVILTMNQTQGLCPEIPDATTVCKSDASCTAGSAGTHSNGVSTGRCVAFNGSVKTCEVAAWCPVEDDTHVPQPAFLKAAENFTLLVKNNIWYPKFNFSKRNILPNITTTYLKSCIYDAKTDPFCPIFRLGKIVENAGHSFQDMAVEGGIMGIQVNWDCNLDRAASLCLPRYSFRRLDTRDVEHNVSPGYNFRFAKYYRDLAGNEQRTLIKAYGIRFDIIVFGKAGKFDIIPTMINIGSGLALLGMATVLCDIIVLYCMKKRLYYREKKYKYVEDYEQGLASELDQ
As to the kind of experiment: Antagonist activity against recombinant human P2X purinoceptor 4 (P2X4). It counts as functional.

The Kd is the equilibrium constant for the complex coming apart. Usually IC50 stands for the concentration needed to halve the response being measured. As a reminder, the EC50 is the concentration that produces a half-maximal response.

P2Y purinoceptor 2, sequence (P41231 whole entry): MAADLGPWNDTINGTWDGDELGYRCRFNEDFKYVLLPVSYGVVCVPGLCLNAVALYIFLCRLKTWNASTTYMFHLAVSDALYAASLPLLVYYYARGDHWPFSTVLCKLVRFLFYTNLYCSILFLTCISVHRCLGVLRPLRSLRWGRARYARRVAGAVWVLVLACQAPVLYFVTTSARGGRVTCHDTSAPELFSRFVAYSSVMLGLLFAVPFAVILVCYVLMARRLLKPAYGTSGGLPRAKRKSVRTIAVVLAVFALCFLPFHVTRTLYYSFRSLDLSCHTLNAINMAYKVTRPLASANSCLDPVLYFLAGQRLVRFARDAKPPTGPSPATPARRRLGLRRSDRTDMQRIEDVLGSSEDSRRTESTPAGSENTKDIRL

`Cc1cc(C)c(Nc2cc(S(=O)(=O)O)c(N)c3c2C(=O)c2ccccc2C3=O)c(C)c1` [ACID BLUE 129]: the Kd on P2X purinoceptor 1 [1] is more than 100 µM.

Compound `Nc1c(S(=O)(=O)O)cc(Nc2ccc(Nc3nc(Cl)nc(Cl)n3)c(S(=O)(=O)O)c2)c2c1C(=O)c1ccccc1C2=O` gave an IC50 against P2X purinoceptor 1 [1] of 8.8 µM.

As to `Nc1ncnc2c1ncn2[C@@H]1O[C@H](CO[P@](=O)(O)O[P@](=O)(O)O[P@@](=O)(O)S)[C@@H](O)[C@H]1O`, the EC50 amounted to 2.3 µM on P2X purinoceptor 4 [2]; 0.6 µM at P2X purinoceptor 5; 1.3 µM at P2X purinoceptor 6; 1.5 µM on P2X purinoceptor 2; 1.72 µM on P2Y purinoceptor 2; 0.69 µM on P2X purinoceptor 3. The EC50 is 3 µM at P2Y purinoceptor 11, 1.3 µM on P2Y purinoceptor 12, 1.3 µM at P2Y purinoceptor 1 and 2.3 µM at P2X purinoceptor 1 [3].

`CSc1nc(N)c2ncn([C@@H]3O[C@H](COP(=O)(O)OP(=O)(O)O)[C@@H](O)[C@H]3O)c2n1`: the EC50 at P2Y purinoceptor 2 was more than 100 µM.

`Nc1ncnc2c1ncn2[C@H]1CC(OP(=O)(O)O)C2(COP(=O)(O)O)CC12` (stereo partly specified): the EC50 at P2Y purinoceptor 1 was found to be 0.155 µM.

The compound `Nc1ncnc2c1ncn2[C@@H]1CO[C@H](COP(=O)(O)O)[C@@H](OP(=O)(O)O)C1` showed an EC50 at P2Y purinoceptor 1 of 0.003 µM.

As to `Nc1ncnc2c1ncn2[C@@H]1O[C@H](COP(=O)(O)OP(=O)(O)S)[C@@H](O)[C@H]1O` (stereo partly specified), the EC50 at P2X purinoceptor 4 [4] came to 25 µM; at P2X purinoceptor 2, 100 µM; at P2X purinoceptor 3, 8.8 µM; on P2Y purinoceptor 11 it was 30 µM; at P2Y purinoceptor 12 it was 0.082 µM; at P2X purinoceptor 1 [3], 2.5 µM.
